# Reference: the supplement of paper PMC10307832
# What was measured:
# Test in all cases: relative viability (nuclei count vs DMSO), 5 days (fraction); higher = more cells survive
# KIN001-266 + Pictilisib = compound: CCN1CCC(CC1)N2C=C(N=N2)CNC3=CC4=C(C(=CN=C4C(=C3)Cl)C#N)NC5=CC(=C(C=C5)F)Cl [KIN001-266] + CS(=O)(=O)N1CCN(Cc2cc3nc(-c4cccc5[nH]ncc45)nc(N4CCOCC4)c3s2)CC1 [Pictilisib] (partner 1 µM)
# Method in brief: (§1)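 Cells from lung cancer lines were seeded into 1536-well plates and, one day later, dosed by pin tool. Treatments were either a single drug or a fixed dose of an anchor drug with five library-drug doses (not always all listed) in √10 steps. After 5 days, nuclei were stained in a one-step fixation (final 0.05% Triton X-100, 1% formaldehyde, 1 ug/ml Hoechst) and counted on 4× images, and relative viability is the treated-to-vehicle nuclei ratio, as the median of duplicate plates.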
# KIN001-266 + Navitoclax = compound: CCN1CCC(CC1)N2C=C(N=N2)CNC3=CC4=C(C(=CN=C4C(=C3)Cl)C#N)NC5=CC(=C(C=C5)F)Cl [KIN001-266] + CC1(C)CCC(c2ccc(Cl)cc2)=C(CN2CCN(c3ccc(C(=O)NS(=O)(=O)c4ccc(N[C@H](CCN5CCOCC5)CSc5ccccc5)c(S(=O)(=O)C(F)(F)F)c4)cc3)CC2)C1 [Navitoclax] (partner 0.5 µM)
# Method in brief: as §1
# KIN001-266 + Bortezomib = compound: CCN1CCC(CC1)N2C=C(N=N2)CNC3=CC4=C(C(=CN=C4C(=C3)Cl)C#N)NC5=CC(=C(C=C5)F)Cl [KIN001-266] + CC(C)C[C@H](NC(=O)[C@H](Cc1ccccc1)NC(=O)c1cnccn1)B(O)O [Bortezomib] (partner 0.002 µM)
# Method in brief: as §1
# KIN001-266 + Linsitinib = compound: CCN1CCC(CC1)N2C=C(N=N2)CNC3=CC4=C(C(=CN=C4C(=C3)Cl)C#N)NC5=CC(=C(C=C5)F)Cl [KIN001-266] + C[C@]1(O)C[C@@H](c2nc(-c3ccc4ccc(-c5ccccc5)nc4c3)c3c(N)nccn32)C1 [Linsitinib] (partner 1 µM)
# Method in brief: as §1
# KIN001-266 + Olaparib = compound: CCN1CCC(CC1)N2C=C(N=N2)CNC3=CC4=C(C(=CN=C4C(=C3)Cl)C#N)NC5=CC(=C(C=C5)F)Cl [KIN001-266] + O=C(c1cc(Cc2n[nH]c(=O)c3ccccc23)ccc1F)N1CCN(C(=O)C2CC2)CC1 [Olaparib] (partner 8 µM)
# Method in brief: as §1
# KIN001-266 + Crizotinib = compound: CCN1CCC(CC1)N2C=C(N=N2)CNC3=CC4=C(C(=CN=C4C(=C3)Cl)C#N)NC5=CC(=C(C=C5)F)Cl [KIN001-266] + C[C@@H](Oc1cc(-c2cnn(C3CCNCC3)c2)cnc1N)c1c(Cl)ccc(F)c1Cl [Crizotinib] (partner 1 µM)
# Method in brief: as §1
# KIN001-266 + Foretinib = compound: CCN1CCC(CC1)N2C=C(N=N2)CNC3=CC4=C(C(=CN=C4C(=C3)Cl)C#N)NC5=CC(=C(C=C5)F)Cl [KIN001-266] + COc1cc2c(Oc3ccc(NC(=O)C4(C(=O)Nc5ccc(F)cc5)CC4)cc3F)ccnc2cc1OCCCN1CCOCC1 [Foretinib] (partner 0.25 µM)
# Method in brief: as §1
# KIN001-266 + Alpelisib = compound: CCN1CCC(CC1)N2C=C(N=N2)CNC3=CC4=C(C(=CN=C4C(=C3)Cl)C#N)NC5=CC(=C(C=C5)F)Cl [KIN001-266] + Cc1nc(NC(=O)N2CCC[C@H]2C(N)=O)sc1-c1ccnc(C(C)(C)C(F)(F)F)c1 [Alpelisib] (partner 2 µM)
# Method in brief: as §1
# KIN001-266 + Lapatinib = compound: CCN1CCC(CC1)N2C=C(N=N2)CNC3=CC4=C(C(=CN=C4C(=C3)Cl)C#N)NC5=CC(=C(C=C5)F)Cl [KIN001-266] + CS(=O)(=O)CCNCc1ccc(-c2ccc3ncnc(Nc4ccc(OCc5cccc(F)c5)c(Cl)c4)c3c2)o1 [Lapatinib] (partner 2 µM)
# Method in brief: as §1
# KIN001-266 = compound: CCN1CCC(CC1)N2C=C(N=N2)CNC3=CC4=C(C(=CN=C4C(=C3)Cl)C#N)NC5=CC(=C(C=C5)F)Cl [KIN001-266]
# Method in brief: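 Lung cancer cell lines received five library-drug doses (not always all listed) spaced by √10, pinned on vehicle-anchored 1536-well plates after an overnight stay at 37 °C. Five days later, with no medium change, nuclei were Hoechst-stained, imaged at 4× and counted with MetaXpress. Viability is treated-well nuclei relative to vehicle-well nuclei, as a median across plates. Passing plates had control CV below 25% and at least one doubling.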
# KIN001-266 + Phenformin = compound: CCN1CCC(CC1)N2C=C(N=N2)CNC3=CC4=C(C(=CN=C4C(=C3)Cl)C#N)NC5=CC(=C(C=C5)F)Cl [KIN001-266] + N=C(N)NC(=N)NCCc1ccccc1 [Phenformin] (partner 250 µM)
# Method in brief: as §1
# KIN001-266 + Dasatinib = compound: CCN1CCC(CC1)N2C=C(N=N2)CNC3=CC4=C(C(=CN=C4C(=C3)Cl)C#N)NC5=CC(=C(C=C5)F)Cl [KIN001-266] + Cc1nc(Nc2ncc(C(=O)Nc3c(C)cccc3Cl)s2)cc(N2CCN(CCO)CC2)n1 [Dasatinib] (partner 0.075 µM)
# Method in brief: as §1
# KIN001-266 + Tozasertib = compound: CCN1CCC(CC1)N2C=C(N=N2)CNC3=CC4=C(C(=CN=C4C(=C3)Cl)C#N)NC5=CC(=C(C=C5)F)Cl [KIN001-266] + Cc1cc(Nc2cc(N3CCN(C)CC3)nc(Sc3ccc(NC(=O)C4CC4)cc3)n2)n[nH]1 [Tozasertib] (partner 0.1 µM)
# Method in brief: as §1
# KIN001-266 + OSI-027 = compound: CCN1CCC(CC1)N2C=C(N=N2)CNC3=CC4=C(C(=CN=C4C(=C3)Cl)C#N)NC5=CC(=C(C=C5)F)Cl [KIN001-266] + COc1cccc2cc(-c3nc([C@H]4CC[C@H](C(=O)O)CC4)n4ncnc(N)c34)[nH]c12 [OSI-027] (partner 0.5 µM)
# Method in brief: as §1
# KIN001-266 + Luminespib = compound: CCN1CCC(CC1)N2C=C(N=N2)CNC3=CC4=C(C(=CN=C4C(=C3)Cl)C#N)NC5=CC(=C(C=C5)F)Cl [KIN001-266] + CCNC(=O)c1noc(-c2cc(C(C)C)c(O)cc2O)c1-c1ccc(CN2CCOCC2)cc1 [Luminespib] (partner 0.01 µM)
# Method in brief: as §1
cell line,measurement,setting,value
EBC-1,relative viability,KIN001-266 + Pictilisib; first compound 0.08 µM,0.416
same,relative viability,KIN001-266 + Pictilisib; first compound 0.253 µM,0.519
same,relative viability,KIN001-266 + Pictilisib; first compound 0.8 µM,0.553
same,relative viability,KIN001-266 + Pictilisib; first compound 2.53 µM,0.576
same,relative viability,KIN001-266 + Pictilisib; first compound 8 µM,0.329
same,relative viability,KIN001-266 + Navitoclax; first compound 0.08 µM,0.398
same,relative viability,KIN001-266 + Navitoclax; first compound 0.253 µM,0.413
same,relative viability,KIN001-266 + Navitoclax; first compound 0.8 µM,0.409
same,relative viability,KIN001-266 + Navitoclax; first compound 2.53 µM,0.359
same,relative viability,KIN001-266 + Navitoclax; first compound 8 µM,0.217
same,relative viability,KIN001-266 + Bortezomib; first compound 0.08 µM,0.566
same,relative viability,KIN001-266 + Bortezomib; first compound 0.253 µM,0.502
same,relative viability,KIN001-266 + Bortezomib; first compound 0.8 µM,0.477
same,relative viability,KIN001-266 + Bortezomib; first compound 2.53 µM,0.446
same,relative viability,KIN001-266 + Bortezomib; first compound 8 µM,0.364
same,relative viability,KIN001-266 + Linsitinib; first compound 0.08 µM,1.04
same,relative viability,KIN001-266 + Linsitinib; first compound 0.253 µM,0.896
same,relative viability,KIN001-266 + Linsitinib; first compound 0.8 µM,0.839
same,relative viability,KIN001-266 + Linsitinib; first compound 2.53 µM,1.01
same,relative viability,KIN001-266 + Linsitinib; first compound 8 µM,0.726
same,relative viability,KIN001-266 + Olaparib; first compound 0.08 µM,0.76
same,relative viability,KIN001-266 + Olaparib; first compound 0.253 µM,0.72
same,relative viability,KIN001-266 + Olaparib; first compound 0.8 µM,0.635
same,relative viability,KIN001-266 + Olaparib; first compound 2.53 µM,0.649
same,relative viability,KIN001-266 + Olaparib; first compound 8 µM,0.511
same,relative viability,KIN001-266 + Crizotinib; first compound 0.08 µM,0.183
same,relative viability,KIN001-266 + Crizotinib; first compound 0.253 µM,0.205
same,relative viability,KIN001-266 + Crizotinib; first compound 0.8 µM,0.205
same,relative viability,KIN001-266 + Crizotinib; first compound 2.53 µM,0.203
same,relative viability,KIN001-266 + Crizotinib; first compound 8 µM,0.185
same,relative viability,KIN001-266 + Foretinib; first compound 0.08 µM,0.0963
same,relative viability,KIN001-266 + Foretinib; first compound 0.253 µM,0.1
same,relative viability,KIN001-266 + Foretinib; first compound 0.8 µM,0.105
same,relative viability,KIN001-266 + Foretinib; first compound 2.53 µM,0.128
same,relative viability,KIN001-266 + Foretinib; first compound 8 µM,0.117
same,relative viability,KIN001-266 + Alpelisib; first compound 0.08 µM,0.929
same,relative viability,KIN001-266 + Alpelisib; first compound 0.253 µM,0.879
same,relative viability,KIN001-266 + Alpelisib; first compound 0.8 µM,0.822
same,relative viability,KIN001-266 + Alpelisib; first compound 2.53 µM,0.843
same,relative viability,KIN001-266 + Alpelisib; first compound 8 µM,0.629
same,relative viability,KIN001-266 + Lapatinib; first compound 0.08 µM,0.219
same,relative viability,KIN001-266 + Lapatinib; first compound 0.253 µM,0.218
same,relative viability,KIN001-266 + Lapatinib; first compound 0.8 µM,0.209
same,relative viability,KIN001-266 + Lapatinib; first compound 2.53 µM,0.199
same,relative viability,KIN001-266 + Lapatinib; first compound 8 µM,0.201
same,relative viability,KIN001-266; 0.08 µM,1.04
same,relative viability,KIN001-266; 0.253 µM,1.02
same,relative viability,KIN001-266; 0.8 µM,0.954
same,relative viability,KIN001-266; 2.53 µM,0.988
same,relative viability,KIN001-266; 8 µM,0.704
NCI-H1623,relative viability,KIN001-266 + Phenformin; first compound 0.08 µM,0.652
same,relative viability,KIN001-266 + Phenformin; first compound 0.253 µM,0.603
same,relative viability,KIN001-266 + Phenformin; first compound 0.8 µM,0.577
same,relative viability,KIN001-266 + Phenformin; first compound 2.53 µM,0.611
same,relative viability,KIN001-266 + Phenformin; first compound 8 µM,0.526
same,relative viability,KIN001-266 + Dasatinib; first compound 0.08 µM,0.579
same,relative viability,KIN001-266 + Dasatinib; first compound 0.253 µM,0.514
same,relative viability,KIN001-266 + Dasatinib; first compound 0.8 µM,0.447
same,relative viability,KIN001-266 + Dasatinib; first compound 2.53 µM,0.547
same,relative viability,KIN001-266 + Dasatinib; first compound 8 µM,0.475
same,relative viability,KIN001-266 + Tozasertib; first compound 0.08 µM,0.468
same,relative viability,KIN001-266 + Tozasertib; first compound 0.253 µM,0.421
same,relative viability,KIN001-266 + Tozasertib; first compound 0.8 µM,0.461
same,relative viability,KIN001-266 + Tozasertib; first compound 2.53 µM,0.432
same,relative viability,KIN001-266 + Tozasertib; first compound 8 µM,0.422
same,relative viability,KIN001-266 + Foretinib; first compound 0.08 µM,1.05
same,relative viability,KIN001-266 + Foretinib; first compound 0.253 µM,0.865
same,relative viability,KIN001-266 + Foretinib; first compound 0.8 µM,0.871
same,relative viability,KIN001-266 + Foretinib; first compound 2.53 µM,0.894
same,relative viability,KIN001-266 + Foretinib; first compound 8 µM,0.875
same,relative viability,KIN001-266 + OSI-027; first compound 0.08 µM,0.457
same,relative viability,KIN001-266 + OSI-027; first compound 0.253 µM,0.437
same,relative viability,KIN001-266 + OSI-027; first compound 0.8 µM,0.385
same,relative viability,KIN001-266 + OSI-027; first compound 2.53 µM,0.453
same,relative viability,KIN001-266 + OSI-027; first compound 8 µM,0.433
same,relative viability,KIN001-266 + Luminespib; first compound 0.08 µM,0.423
same,relative viability,KIN001-266 + Luminespib; first compound 0.253 µM,0.624
same,relative viability,KIN001-266 + Luminespib; first compound 0.8 µM,0.57
same,relative viability,KIN001-266 + Luminespib; first compound 2.53 µM,0.475
same,relative viability,KIN001-266 + Luminespib; first compound 8 µM,0.536
same,relative viability,KIN001-266; 0.08 µM,0.963
same,relative viability,KIN001-266; 0.253 µM,0.96
same,relative viability,KIN001-266; 0.8 µM,0.955
same,relative viability,KIN001-266; 2.53 µM,1.07
same,relative viability,KIN001-266; 8 µM,1.01
